# Laboratory results: PubChem BioAssay (NCI)
#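 Each compound was tested at five concentrations against cells in 96-well plates for 48 hours. GI50 marks 50% less growth. TGI is the concentration that stops growth completely.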
# What was measured:
# Test in all cases: NCI-60 cell line screen, 48 h
# KM12 colon = tested on: KM12 colon
# HCT-15 colon = tested on: HCT-15 colon
# UACC-257 melanoma = tested on: UACC-257 melanoma
# SN12C renal = tested on: SN12C renal
# MOLT-4 leukemia = tested on: MOLT-4 leukemia
# DU-145 prostate = tested on: DU-145 prostate
# MDA-MB-435 = tested on: MDA-MB-435
# NCI-H23 lung = tested on: NCI-H23 lung
# SF-539 CNS = tested on: SF-539 CNS
# HT29 colon = tested on: HT29 colon
# SK-MEL-2 melanoma = tested on: SK-MEL-2 melanoma
# A498 renal = tested on: A498 renal
# OVCAR-5 ovarian = tested on: OVCAR-5 ovarian
# UACC-62 melanoma = tested on: UACC-62 melanoma
# RPMI-8226 leukemia = tested on: RPMI-8226 leukemia
# UO-31 renal = tested on: UO-31 renal
# OVCAR-4 ovarian = tested on: OVCAR-4 ovarian
# SF-268 CNS = tested on: SF-268 CNS
# 786-0 renal = tested on: 786-0 renal
# RXF 393 renal = tested on: RXF 393 renal
# HOP-92 NSCLC = tested on: HOP-92 NSCLC
# NCI/ADR-RES ovarian = tested on: NCI/ADR-RES ovarian
# SNB-75 CNS = tested on: SNB-75 CNS
# TK-10 renal = tested on: TK-10 renal
# EKVX NSCLC = tested on: EKVX NSCLC
# PC-3 prostate = tested on: PC-3 prostate
# ACHN renal = tested on: ACHN renal
# MALME-3M melanoma = tested on: MALME-3M melanoma
# COLO 205 colon = tested on: COLO 205 colon
# SK-OV-3 ovarian = tested on: SK-OV-3 ovarian
# SW-620 colon = tested on: SW-620 colon
# M14 melanoma = tested on: M14 melanoma
# CCRF-CEM leukemia = tested on: CCRF-CEM leukemia
# HS 578T breast = tested on: HS 578T breast
# NCI-H460 lung = tested on: NCI-H460 lung
# SK-MEL-28 melanoma = tested on: SK-MEL-28 melanoma
# A549 NSCLC = tested on: A549 NSCLC
# SK-MEL-5 melanoma = tested on: SK-MEL-5 melanoma
# IGROV1 ovarian = tested on: IGROV1 ovarian
# HOP-62 NSCLC = tested on: HOP-62 NSCLC
# OVCAR-8 ovarian = tested on: OVCAR-8 ovarian
# MCF7 breast = tested on: MCF7 breast
# HL-60(TB) leukemia = tested on: HL-60(TB) leukemia
# HCC-2998 colon = tested on: HCC-2998 colon
# MDA-MB-231 breast = tested on: MDA-MB-231 breast
# T-47D breast = tested on: T-47D breast
# OVCAR-3 ovarian = tested on: OVCAR-3 ovarian
# K-562 leukemia = tested on: K-562 leukemia
# LOX IMVI melanoma = tested on: LOX IMVI melanoma
# HCT-116 colon = tested on: HCT-116 colon
# CAKI-1 renal = tested on: CAKI-1 renal
# BT-549 breast = tested on: BT-549 breast
# NCI-H226 lung = tested on: NCI-H226 lung
# SR leukemia = tested on: SR leukemia
# SF-295 CNS = tested on: SF-295 CNS
# SNB-19 CNS = tested on: SNB-19 CNS
# U251 CNS = tested on: U251 CNS
compound,measurement,setting,value
NC(N)=Nc1ccc(Oc2ccc(Nc3ccc(Cl)c(C(F)(F)F)c3)cc2)cc1,GI50,KM12 colon,1.65 µM
same,TGI,KM12 colon,3.11 µM
same,GI50,HCT-15 colon,1.94 µM
same,TGI,HCT-15 colon,4.23 µM
same,GI50,UACC-257 melanoma,1.64 µM
same,TGI,UACC-257 melanoma,3.26 µM
same,GI50,SN12C renal,1.66 µM
same,TGI,SN12C renal,3.19 µM
same,GI50,MOLT-4 leukemia,1.83 µM
same,TGI,MOLT-4 leukemia,4.62 µM
same,GI50,DU-145 prostate,1.74 µM
same,TGI,DU-145 prostate,3.16 µM
same,GI50,MDA-MB-435,1.59 µM
same,TGI,MDA-MB-435,3.02 µM
same,GI50,NCI-H23 lung,1.64 µM
same,TGI,NCI-H23 lung,3.15 µM
same,GI50,SF-539 CNS,1.69 µM
same,TGI,SF-539 CNS,3.19 µM
same,GI50,HT29 colon,1.6 µM
same,TGI,HT29 colon,3.09 µM
same,GI50,SK-MEL-2 melanoma,1.76 µM
same,TGI,SK-MEL-2 melanoma,3.2 µM
same,GI50,A498 renal,1.28 µM
same,TGI,A498 renal,2.55 µM
same,GI50,OVCAR-5 ovarian,1.71 µM
same,TGI,OVCAR-5 ovarian,3.15 µM
same,GI50,UACC-62 melanoma,1.7 µM
same,TGI,UACC-62 melanoma,3.27 µM
same,GI50,RPMI-8226 leukemia,2.46 µM
same,TGI,RPMI-8226 leukemia,6.97 µM
same,GI50,UO-31 renal,1.84 µM
same,TGI,UO-31 renal,4.51 µM
same,GI50,OVCAR-4 ovarian,1.73 µM
same,TGI,OVCAR-4 ovarian,3.27 µM
same,GI50,SF-268 CNS,1.62 µM
same,TGI,SF-268 CNS,3.39 µM
same,GI50,786-0 renal,1.74 µM
same,TGI,786-0 renal,3.29 µM
same,GI50,RXF 393 renal,1.58 µM
same,TGI,RXF 393 renal,3.04 µM
same,GI50,HOP-92 NSCLC,1.38 µM
same,TGI,HOP-92 NSCLC,2.8 µM
same,GI50,NCI/ADR-RES ovarian,10.4 µM
same,TGI,NCI/ADR-RES ovarian,27.7 µM
same,GI50,SNB-75 CNS,1.26 µM
same,TGI,SNB-75 CNS,2.61 µM
same,GI50,TK-10 renal,1.82 µM
same,TGI,TK-10 renal,3.42 µM
same,GI50,EKVX NSCLC,1.76 µM
same,TGI,EKVX NSCLC,3.56 µM
same,GI50,PC-3 prostate,1.51 µM
same,TGI,PC-3 prostate,3.01 µM
same,GI50,ACHN renal,1.8 µM
same,TGI,ACHN renal,3.24 µM
same,GI50,MALME-3M melanoma,1.79 µM
same,TGI,MALME-3M melanoma,3.99 µM
same,GI50,COLO 205 colon,1.73 µM
same,TGI,COLO 205 colon,3.48 µM
same,GI50,SK-OV-3 ovarian,2.18 µM
same,TGI,SK-OV-3 ovarian,5.07 µM
same,GI50,SW-620 colon,1.7 µM
same,TGI,SW-620 colon,3.25 µM
same,GI50,M14 melanoma,1.65 µM
same,TGI,M14 melanoma,3.22 µM
same,GI50,CCRF-CEM leukemia,2.21 µM
same,TGI,CCRF-CEM leukemia,6.91 µM
same,GI50,HS 578T breast,1.9 µM
same,TGI,HS 578T breast,4.64 µM
same,GI50,NCI-H460 lung,1.78 µM
same,TGI,NCI-H460 lung,3.32 µM
same,GI50,SK-MEL-28 melanoma,1.64 µM
same,TGI,SK-MEL-28 melanoma,3.05 µM
CC(C)(C)c1ccc(C(=O)Nc2sc3c(c2C(N)=O)CC/C(=N\O)C3)cc1,GI50,A549 NSCLC,3.44 µM
same,TGI,A549 NSCLC,56.6 µM
same,GI50,KM12 colon,2.85 µM
same,TGI,KM12 colon,13.5 µM
same,GI50,HCT-15 colon,1.48 µM
same,TGI,HCT-15 colon,14.5 µM
same,GI50,SK-MEL-5 melanoma,2 µM
same,TGI,SK-MEL-5 melanoma,4.21 µM
same,GI50,UACC-257 melanoma,3.27 µM
same,TGI,UACC-257 melanoma,11.7 µM
same,GI50,SN12C renal,3.2 µM
same,TGI,SN12C renal,12.2 µM
same,GI50,IGROV1 ovarian,3.55 µM
same,TGI,IGROV1 ovarian,32 µM
same,GI50,HOP-62 NSCLC,4.91 µM
same,TGI,HOP-62 NSCLC,20.8 µM
same,GI50,MOLT-4 leukemia,2.09 µM
same,TGI,MOLT-4 leukemia,10.6 µM
same,GI50,DU-145 prostate,4.21 µM
same,TGI,DU-145 prostate,16.7 µM
same,GI50,MDA-MB-435,3.01 µM
same,TGI,MDA-MB-435,10.2 µM
same,GI50,OVCAR-8 ovarian,3.88 µM
same,TGI,OVCAR-8 ovarian,20.2 µM
same,GI50,NCI-H23 lung,2.51 µM
same,TGI,NCI-H23 lung,13.4 µM
same,GI50,SF-539 CNS,2.39 µM
same,TGI,SF-539 CNS,6.39 µM
same,GI50,HT29 colon,2.68 µM
same,TGI,HT29 colon,19.9 µM
same,GI50,MCF7 breast,2.68 µM
same,TGI,MCF7 breast,43.1 µM
same,GI50,SK-MEL-2 melanoma,2.69 µM
same,TGI,SK-MEL-2 melanoma,7.01 µM
same,GI50,HL-60(TB) leukemia,0.675 µM
same,TGI,HL-60(TB) leukemia,5.64 µM
same,GI50,HCC-2998 colon,4.79 µM
same,TGI,HCC-2998 colon,22.3 µM
same,GI50,A498 renal,2.09 µM
same,TGI,A498 renal,8.85 µM
same,GI50,MDA-MB-231 breast,3.04 µM
same,TGI,MDA-MB-231 breast,9.11 µM
same,GI50,OVCAR-5 ovarian,3.43 µM
same,TGI,OVCAR-5 ovarian,14.3 µM
same,GI50,UACC-62 melanoma,1.95 µM
same,TGI,UACC-62 melanoma,8.99 µM
same,GI50,T-47D breast,0.739 µM
same,TGI,T-47D breast,8.06 µM
same,GI50,RPMI-8226 leukemia,1.04 µM
same,TGI,RPMI-8226 leukemia,4.92 µM
same,GI50,OVCAR-3 ovarian,3.18 µM
same,TGI,OVCAR-3 ovarian,13.6 µM
same,GI50,OVCAR-4 ovarian,1.12 µM
same,TGI,OVCAR-4 ovarian,14.2 µM
same,GI50,K-562 leukemia,0.597 µM
same,TGI,K-562 leukemia,5.82 µM
same,GI50,LOX IMVI melanoma,1.61 µM
same,TGI,LOX IMVI melanoma,4.35 µM
same,GI50,SF-268 CNS,5.38 µM
same,TGI,SF-268 CNS,24.7 µM
same,GI50,HCT-116 colon,1.5 µM
same,TGI,HCT-116 colon,12.6 µM
same,GI50,786-0 renal,3.81 µM
same,TGI,786-0 renal,23 µM
same,GI50,RXF 393 renal,0.544 µM
same,TGI,RXF 393 renal,3.11 µM
same,GI50,HOP-92 NSCLC,2.43 µM
same,TGI,HOP-92 NSCLC,6.86 µM
same,GI50,NCI/ADR-RES ovarian,2.87 µM
same,TGI,NCI/ADR-RES ovarian,18.6 µM
same,GI50,SNB-75 CNS,3.65 µM
same,TGI,SNB-75 CNS,14.9 µM
same,GI50,TK-10 renal,5.81 µM
same,TGI,TK-10 renal,53.9 µM
same,GI50,EKVX NSCLC,3.77 µM
same,TGI,EKVX NSCLC,19.2 µM
same,GI50,PC-3 prostate,1.31 µM
same,TGI,PC-3 prostate,18.6 µM
same,GI50,CAKI-1 renal,0.756 µM
same,TGI,CAKI-1 renal,10.6 µM
same,GI50,ACHN renal,1.55 µM
same,TGI,ACHN renal,9.21 µM
same,GI50,MALME-3M melanoma,2.36 µM
same,TGI,MALME-3M melanoma,6.53 µM
same,GI50,BT-549 breast,1.06 µM
same,TGI,BT-549 breast,8.1 µM
same,GI50,COLO 205 colon,3.39 µM
same,TGI,COLO 205 colon,15.7 µM
same,GI50,NCI-H226 lung,2.36 µM
same,TGI,NCI-H226 lung,9.9 µM
same,GI50,SK-OV-3 ovarian,3.53 µM
same,TGI,SK-OV-3 ovarian,19.2 µM
same,GI50,SR leukemia,1.36 µM
same,TGI,SR leukemia,6.36 µM
same,GI50,SW-620 colon,1.93 µM
same,TGI,SW-620 colon,17.4 µM
same,GI50,SF-295 CNS,3.96 µM
same,TGI,SF-295 CNS,14.8 µM
same,GI50,M14 melanoma,2.83 µM
same,TGI,M14 melanoma,14.2 µM
same,GI50,SNB-19 CNS,4.18 µM
same,TGI,SNB-19 CNS,18.4 µM
same,GI50,CCRF-CEM leukemia,0.505 µM
same,TGI,CCRF-CEM leukemia,9.71 µM
same,GI50,U251 CNS,3.66 µM
same,TGI,U251 CNS,28.2 µM
same,GI50,HS 578T breast,4.66 µM
same,TGI,HS 578T breast,58 µM
same,GI50,NCI-H460 lung,3.06 µM
same,TGI,NCI-H460 lung,10.1 µM
same,GI50,SK-MEL-28 melanoma,3.47 µM
same,TGI,SK-MEL-28 melanoma,12.4 µM
